Results: US10857138B2, “Pharmaceutical compositions comprising antibacterial agents” (WOCKHARDT LIMITED, priority 2014, dated 2020)

Tests used:
[1] = system: Klebsiella pneumoniae NCTC 13443 strain producing NDM-1, SHV and TEM beta-lactamase enzymes; test: Time kill study against K. pneumoniae NCTC 13443; assay type: cell-based; settings: for Bacterial count (Log10CFU/ml) 2 hours / Bacterial count (Log10CFU/ml) 4 hours / Bacterial count (Log10CFU/ml) 6 hours / Bacterial count (Log10CFU/ml) 8 hours: each agent at 4 mcg/ml, alone or in combination; for Effect on bacterial count when used alone: used alone at 4 μg/ml, throughout the duration of the study
Method: (§1) In a typical time kill study, the freshly grown cultures were diluted to the required cell density (initial starting inoculum) in Cation adjusted Muller Hinton broth medium (BD, USA). The antibacterial agents (either alone or in combination) at the required concentrations were added into the culture-containing medium. The samples were incubated under shaking condition (120 rpm) at 37° C. Enumeration of viable bacterial count was done every 2 hour by diluting in normal saline and plating on to the Tryptic Soya Agar plates (BD, USA). The plates were incubated for 24 hours to arrive at the viable bacterial count. […] In general, the decrease of 1 Log CFU/ml, corresponds to 90% killing of bacteria. Similarly, 2 Log CFU/ml reductions indicates to 99% killing of bacteria and 3 Log CFU/ml reductions is equal to 99.9% killing of bacteria.
(§2) The assay without any antibacterial agent was taken as control.

[2] = system: Klebsiella pneumoniae B 88 strain producing NDM-1, SHV, TEM and CTXM beta-lactamase enzymes; test: Time kill study against K. pneumoniae B 88; assay type: cell-based; parameters: Effect on bacterial count when used alone: dose or concentration left out as unconfirmed; settings: for Bacterial count (Log10CFU/ml) 2 hours / Bacterial count (Log10CFU/ml) 4 hours / Bacterial count (Log10CFU/ml) 6 hours / Bacterial count (Log10CFU/ml) 8 hours: each agent at 4 mcg/ml, alone or in combination; for Effect on bacterial count when used alone: used alone at 4 mcg/ml, throughout the duration of the study
Method: as §1, §2

Structure (SMILES) | Bacterial count (Log10CFU/ml) 2 hours [1] | Bacterial count (Log10CFU/ml) 4 hours [1] | Bacterial count (Log10CFU/ml) 6 hours [1] | Bacterial count (Log10CFU/ml) 8 hours [1] | Effect on bacterial count when used alone [1] | Bacterial count (Log10CFU/ml) 2 hours [2] | Bacterial count (Log10CFU/ml) 4 hours [2] | Bacterial count (Log10CFU/ml) 6 hours [2] | Bacterial count (Log10CFU/ml) 8 hours [2] | Effect on bacterial count when used alone [2]
C[C@H]1[C@H](NC(=O)/C(=N\OC(C)(C)C(=O)O)c2csc(N)n2)C(=O)N1S(=O)(=O)O [Aztreonam, reference compound] | 8.38 Log10CFU/ml | 8.65 Log10CFU/ml | 9.02 Log10CFU/ml | 9.55 Log10CFU/ml | not effective to decrease the bacterial count | 8.16 Log10CFU/ml | 8.7 Log10CFU/ml | 8.88 Log10CFU/ml | 9.04 Log10CFU/ml | not effective to decrease the bacterial count
N#C[C@@H]1CC[C@@H]2CN1C(=O)N2OS(=O)(=O)[O-].[Na+] [Compound A, Sodium salt of trans-7-oxo-6-sulphooxy-1,6-diazabicyclo[3.2.1]-octane-2-carbonitrile] | 8.3 Log10CFU/ml | 8.5 Log10CFU/ml | 8.8 Log10CFU/ml | 9 Log10CFU/ml | not effective to decrease the bacterial count | 8 Log10CFU/ml | 8.2 Log10CFU/ml | 8.5 Log10CFU/ml | 8.8 Log10CFU/ml | not effective to decrease the bacterial count
NC(=O)c1nnc([C@@H]2CC[C@@H]3CN2C(=O)N3OS(=O)(=O)O)o1 [Compound B] | 8.3 Log10CFU/ml | 8.5 Log10CFU/ml | 8.8 Log10CFU/ml | 8.9 Log10CFU/ml | not effective to decrease the bacterial count | 7.98 Log10CFU/ml | 8.2 Log10CFU/ml | 8.50 Log10CFU/ml | 8.9 Log10CFU/ml | not effective to decrease the bacterial count
O=C1N2C[C@@H](CC[C@H]2c2nnc(C3CCNCC3)o2)N1OS(=O)(=O)O [Compound C] | 8.2 Log10CFU/ml | 8.9 Log10CFU/ml | 9 Log10CFU/ml | 9.5 Log10CFU/ml | not effective to decrease the bacterial count | 8.1 Log10CFU/ml | 8.15 Log10CFU/ml | 8.65 Log10CFU/ml | 8.9 Log10CFU/ml | not effective to decrease the bacterial count
O=C1N2C[C@@H](CC[C@H]2c2nnc(CC3CNC3)o2)N1OS(=O)(=O)O [Compound D] | 8.3 Log10CFU/ml | 8.55 Log10CFU/ml | 8.95 Log10CFU/ml | 9.2 Log10CFU/ml | not effective to decrease the bacterial count | 8.05 Log10CFU/ml | 8.3 Log10CFU/ml | 8.7 Log10CFU/ml | 8.8 Log10CFU/ml | not effective to decrease the bacterial count
O=C(NNC(=O)[C@@H]1CC[C@@H]2CN1C(=O)N2OS(=O)(=O)O)[C@@H]1CCCNC1 [Compound E, (2S,5R)-7-Oxo-6-sulphooxy-2-[N′—((R)-piperidine-3-carbonyl)-hydrazinocarbonyl]-1,6-diaza-bicyclo[3.2.1]octane] | 8.35 Log10CFU/ml | 8.6 Log10CFU/ml | 8.8 Log10CFU/ml | 8.9 Log10CFU/ml | not effective to decrease the bacterial count | 7.9 Log10CFU/ml | 8.3 Log10CFU/ml | 8.8 Log10CFU/ml | 8.9 Log10CFU/ml | not effective to decrease the bacterial count
O=C(NOC[C@@H]1CCCN1)[C@@H]1CC[C@@H]2CN1C(=O)N2OS(=O)(=O)O [Compound F, (2S,5R)-7-Oxo-N-[(2S)-pyrrolidin-2-ylmethoxy]-6-(sulfooxy)-1,6-diaza bicyclo[3.2.1]octane-2-carboxamide] | 8.4 Log10CFU/ml | 8.7 Log10CFU/ml | 8.9 Log10CFU/ml | 9.1 Log10CFU/ml | not effective to decrease the bacterial count | 8 Log10CFU/ml | 8.2 Log10CFU/ml | 8.35 Log10CFU/ml | 8.7 Log10CFU/ml | not effective to decrease the bacterial count
O=C(NNC(=O)[C@@H]1CC[C@@H]2CN1C(=O)N2OS(=O)(=O)O)[C@@H]1CCNC1 [Compound G, (2S,5R)-7-Oxo-6-sulphooxy-2-[N′—((R)-pyrrolidine-3-carbonyl)-hydrazinocarbonyl]-1,6-diaza-bicyclo[3.2.1]octane] | 8.36 Log10CFU/ml | 8.78 Log10CFU/ml | 8.9 Log10CFU/ml | 9.2 Log10CFU/ml | not effective to decrease the bacterial count | 7.95 Log10CFU/ml | 8.05 Log10CFU/ml | 8.7 Log10CFU/ml | 8.98 Log10CFU/ml | not effective to decrease the bacterial count
O=C(NOC[C@@H]1CCCCN1)[C@@H]1CC[C@@H]2CN1C(=O)N2OS(=O)(=O)O [Compound H, (2S,5R)-7-Oxo-N-[(2S)-piperidine-2-ylmethyloxy]-6-(sulfooxy)-1,6-diazabicyclo[3.2.1]octane-2-carboxamide] | 8.35 Log10CFU/ml | 8.48 Log10CFU/ml | 8.9 Log10CFU/ml | 9.1 Log10CFU/ml | not effective to decrease the bacterial count | 8.15 Log10CFU/ml | 8.3 Log10CFU/ml | 8.65 Log10CFU/ml | 8.98 Log10CFU/ml | not effective to decrease the bacterial count
C[C@H](N)c1nnc([C@@H]2CC[C@@H]3CN2C(=O)N3OS(=O)(=O)O)o1 [Compound I, trans-sulphuric acid mono-[2-(5-((S)-1-amino-ethyl)-[1,3,4]-oxadiazol-2-yl)-7-oxo-1,6-diazabicyclo[3.2.1]-octan-6-yl] ester] | 8.36 Log10CFU/ml | 8.79 Log10CFU/ml | 8.9 Log10CFU/ml | 9.1 Log10CFU/ml | not effective to decrease the bacterial count | 8.36 Log10CFU/ml | 8.79 Log10CFU/ml | 8.9 Log10CFU/ml | 9.1 Log10CFU/ml | not effective to decrease the bacterial count
O=C1N2C[C@@H](CC[C@H]2c2nnc([C@@H]3CCCN3)o2)N1OS(=O)(=O)O [Compound J, trans-sulphuric acid mono-[2-(5-((S)-pyrrolidin-2-yl)-[1,3,4]-oxadiazol-2-yl)-7-oxo-1,6-diazabicyclo[3.2.1]-octan-6-yl] ester] | 8.35 Log10CFU/ml | 8.5 Log10CFU/ml | 8.8 Log10CFU/ml | 9.2 Log10CFU/ml | not effective to decrease the bacterial count | 8.35 Log10CFU/ml | 8.5 Log10CFU/ml | 8.8 Log10CFU/ml | 9.2 Log10CFU/ml | not effective to decrease the bacterial count
C[C@@H](O)[C@H]1C(=O)N2C(C(=O)O)=C(SCCN=CN)C[C@H]12 [Imipenem, reference compound] | 8.35 Log10CFU/ml | 8.78 Log10CFU/ml | 8.88 Log10CFU/ml | 9.09 Log10CFU/ml |  | 8.28 Log10CFU/ml | 8.7 Log10CFU/ml | 8.9 Log10CFU/ml | 9.2 Log10CFU/ml | 
